Measurements published in US6737383B1, “Herbicidal oxadiazolidines” (priority 1999, dated 2004).

Columns and labels:
cocklebur = assay: Test B pre/postemergence cocklebur; type: in vivo, Xanthium strumarium
In short: (§1)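 Herbicidal effect was estimated by eye on a ten-point control scale after plants spent twelve to sixteen days in a greenhouse following soil or foliar treatment. Foliar sprays targeted plants at one to four leaves; all doses were formulated in a non-phytotoxic solvent with surfactant.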

soybean = assay: Test B pre/postemergence soybean; type: in vivo, Glycine max
In short: as §1

velvetleaf = assay: Test B pre/postemergence velvetleaf; type: in vivo, Abutilon theophrasti
In short: as §1

duck salad = assay: Test B flood test duck salad; type: in vivo, Heteranthera limosa
In short: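 Read-out is a visual response score from 0 (no effect) to 10 (complete control), assigned by comparison with untreated controls. Treatment was applied at the 2-leaf stage, and plants stayed in the greenhouse for twelve to sixteen days before scoring.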

winter wheat [1] = assay: Test E winter wheat; type: in vivo, Triticum aestivum; conditions: Postemergence
In short: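 Compounds formulated in non-phytotoxic solvent mixture with surfactant; for postemergence, sprayed on plants at 1- to 4-leaf stage grown in 60:40 sandy loam/greenhouse potting mix. Kept in greenhouse ~21 to 28 days, then visually rated against untreated controls.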

blackgrass = assay: Test E blackgrass; type: in vivo, Alopecurus myosuroides; conditions: Preemergence
green foxtail = assay: Test E green foxtail; type: in vivo, Setaria viridis; conditions: Preemergence
Italian ryegrass = assay: Test E Italian ryegrass; type: in vivo, Lolium multiflorum; conditions: Preemergence
winter wheat [2] = assay: Test E winter wheat; type: in vivo, Triticum aestivum; conditions: Preemergence
wild oat = assay: Test E wild oat; type: in vivo, Avena fatua; conditions: Preemergence
winter barley = assay: Test E winter barley; type: in vivo, Hordeum vulgare; conditions: Preemergence
[3] = Preemergence, Rate 62 g/ha, scale of 0 to 10 where 0 is no effect and 10 is complete control
[4] = Preemergence, Rate 250 g/ha, scale of 0 to 10 where 0 is no effect and 10 is complete control
[5] = Preemergence, Rate 500 g/ha, scale of 0 to 10 where 0 is no effect and 10 is complete control
[6] = Rate 62 g/ha, Postemergence, scale 0 to 10 (0 no effect, 10 complete control)
[7] = Rate 125 g/ha, Postemergence, scale of 0 to 10 where 0 is no effect and 10 is complete control
[8] = Rate 125 g/ha, Preemergence, scale of 0 to 10 where 0 is no effect and 10 is complete control
[9] = Rate 250 g/ha, Postemergence, scale of 0 to 10 where 0 is no effect and 10 is complete control
[10] = Rate 500 g/ha, Postemergence, scale 0 to 10, 0 no effect, 10 complete control
[11] = Rate 125 g/ha, 0 to 100 scale (0 no effect, 100 complete control)
[12] = Rate 500 g/ha, 0 to 100 scale (0 no effect, 100 complete control)
[13] = Rate 1000 g/ha, 0 to 100 scale, 0 no effect, 100 complete control
[14] = Postemergence, Rate 62 g/ha, scale 0 to 10, 0 is no effect, 10 is complete control
[15] = Postemergence, Rate 125 g/ha, scale of 0 to 10 where 0 is no effect and 10 is complete control
[16] = Preemergence, Rate 62 g/ha, scale 0 to 10 (0 no effect, 10 complete control)
[17] = Preemergence, Rate 125 g/ha, scale 0 to 10 (0 no effect, 10 complete control)
[18] = Preemergence, Rate 500 g/ha, scale 0 (no effect) to 10 (complete control)
[19] = Rate 250 g/ha, Postemergence, scale 0 to 10, 0 is no effect, 10 is complete control
[20] = Rate 31 g/ha, 0 to 100 scale, 0 no effect, 100 complete control
[21] = Rate 62 g/ha, 0 to 100 scale, 0 no effect, 100 complete control

With `CC(C)N(C(=O)n1oc(=O)n(CC(C)(C)C)c1=O)c1ccc(F)cc1F` [Compound 277] the “Cocklebur plant response rating” value (cocklebur; [3]) was 0, the “Cocklebur plant response rating” value (cocklebur; [4]) was 0 and the “Plant response rating, Cocklebur” value (cocklebur; [5]) was 0. For the same compound, the “Cocklebur plant response rating” value (cocklebur; [6]) was 0, the “Cocklebur plant response rating” value (cocklebur; [7]) was 0 and the “Cocklebur plant response rating” value (cocklebur; [8]) was 0. For the same compound, the “Plant response rating, Cocklebur” value (cocklebur; [9]) was 1, the “Cocklebur plant response rating” value (cocklebur; [10]) was 2 and the “Soybean plant response rating” value (soybean; [3]) was 0. The “Soybean plant response rating” value (soybean; [4]) was 0, the “Plant response rating, Soybean” value (soybean; [5]) was 4 and the “Soybean plant response rating” value (soybean; [6]) was 3. For the same compound, the “Soybean plant response rating” value (soybean; [7]) was 4, the “Soybean plant response rating” value (soybean; [8]) was 0 and the “Plant response rating, Soybean” value (soybean; [9]) was 6. The “Soybean plant response rating” value (soybean; [10]) was 8, the “Velvetleaf plant response rating” value (velvetleaf; [3]) was 0 and the “Velvetleaf plant response rating” value (velvetleaf; [4]) was 6. For the same compound, the “Plant response rating, Velvetleaf” value (velvetleaf; [5]) was 7, the “Velvetleaf plant response rating” value (velvetleaf; [6]) was 1 and the “Velvetleaf plant response rating” value (velvetleaf; [7]) was 1. The “Velvetleaf plant response rating” value (velvetleaf; [8]) was 1, the “Plant response rating, Velvetleaf” value (velvetleaf; [9]) was 1 and the “Velvetleaf plant response rating” value (velvetleaf; [10]) was 1. For the same compound, the “Ducksalad plant response rating” value (duck salad; Rate 62 g/ha, headed Pre-emergence (flood test species), scale 0 to 10 (0 no effect, 10 complete control)) was 1, the “Ducksalad plant response rating” value (duck salad; Rate 125 g/ha, Pre-emergence, flood test species, scale 0 to 10 where 0 is no effect and 10 is complete control) was 2 and the “Ducksalad plant response rating” value (duck salad; Rate 250 g/ha, Pre-emergence, flood-test species, scale 0 to 10, 0 is no effect, 10 is complete control) was 2. For the same compound, the “Ducksalad plant response rating” value (duck salad; Rate 500 g/ha, Pre-emergence, flood test species, scale 0 to 10 (0 no effect, 10 complete control)) was 2, the “Plant response rating, Wheat (winter)” value (winter wheat [1]; Rate 125 g/ha, 0 to 100 scale, 0 is no effect, 100 is complete control) was 0 and the “Plant response rating, Wheat (winter)” value (winter wheat [1]; Rate 1000 g/ha, 0 to 100 scale where 0 is no effect and 100 is complete control) was 10. The “Wheat (winter) plant response rating” value (winter wheat [1]; Rate 250 g/ha, 0 to 100 scale where 0 is no effect and 100 is complete control) was 0, the “Plant response rating, Wheat (winter)” value (winter wheat [1]; Rate 500 g/ha, 0 to 100 scale, 0 is no effect, 100 is complete control) was 0 and the “Plant response rating, Blackgrass” value (blackgrass; [11]) was 60. For the same compound, the “Blackgrass plant response rating (0 to 100 scale)” value (blackgrass; Rate 250 g/ha) was 100, the “Plant response rating, Blackgrass” value (blackgrass; [12]) was 70 and the “Plant response rating, Blackgrass” value (blackgrass; [13]) was 100. For the same compound, the “Plant response rating, Green foxtail” value (green foxtail; [11]) was 95, the “Green foxtail plant response rating (0 to 100 scale)” value (green foxtail; Rate 250 g/ha) was 100 and the “Plant response rating, Green foxtail” value (green foxtail; [12]) was 100. For the same compound, the “Plant response rating, Green foxtail” value (green foxtail; [13]) was 100, the “Plant response rating, I. Ryegrass” value (Italian ryegrass; [11]) was 65 and the “I. Ryegrass plant response rating (0 to 100 scale)” value (Italian ryegrass; Rate 250 g/ha) was 75. For the same compound, the “Plant response rating, I. Ryegrass” value (Italian ryegrass; [12]) was 95, the “Plant response rating, I. Ryegrass” value (Italian ryegrass; [13]) was 100 and the “Plant response rating, Wheat (winter)” value (winter wheat [2]; [11]) was 30. The “Wheat (winter) plant response rating (0 to 100 scale)” value (winter wheat [2]; Rate 250 g/ha) was 20, the “Plant response rating, Wheat (winter)” value (winter wheat [2]; [12]) was 10 and the “Plant response rating, Wheat (winter)” value (winter wheat [2]; [13]) was 50. For the same compound, the “Plant response rating, Wild oat” value (wild oat; [11]) was 50, the “Wild oat plant response rating (0 to 100 scale)” value (wild oat; Rate 250 g/ha) was 60 and the “Plant response rating, Wild oat” value (wild oat; [12]) was 65. The “Plant response rating, Wild oat” value (wild oat; [13]) was 70, the “Plant response rating, Barley (winter)” value (winter barley; [11]) was 30 and the “Barley (winter) plant response rating (0 to 100 scale)” value (winter barley; Rate 250 g/ha) was 50. For the same compound, the “Plant response rating, Barley (winter)” value (winter barley; [12]) was 65 and the “Plant response rating, Barley (winter)” value (winter barley; [13]) was 50.

With `CCCn1c(=O)on(C(=O)N(c2ccc(F)cc2)C(C)C)c1=O` [Compound 91] the “Cocklebur plant response rating” value (cocklebur; [14]) was 3, the “Cocklebur plant response rating” value (cocklebur; [15]) was 3 and the “Cocklebur plant response rating” value (cocklebur; Postemergence, Rate 250 g/ha, scale 0 to 10, 0 no effect, 10 complete control) was 4. For the same compound, the “Cocklebur plant response rating” value (cocklebur; [16]) was 0, the “Plant response rating, Cocklebur” value (cocklebur; [17]) was 0 and the “Cocklebur plant response rating” value (cocklebur; [18]) was 3. For the same compound, the “Cocklebur plant response rating” value (cocklebur; [10]) was 4, the “Soybean plant response rating” value (soybean; [14]) was 3 and the “Soybean plant response rating” value (soybean; [15]) was 3. For the same compound, the “Soybean plant response rating” value (soybean; [16]) was 0, the “Plant response rating, Soybean” value (soybean; [17]) was 0 and the “Plant response rating, Soybean” value (soybean; [4]) was 4. For the same compound, the “Soybean plant response rating” value (soybean; [18]) was 7, the “Plant response rating, Soybean” value (soybean; [19]) was 4 and the “Soybean plant response rating” value (soybean; [10]) was 5. For the same compound, the “Velvetleaf plant response rating” value (velvetleaf; [14]) was 0, the “Velvetleaf plant response rating” value (velvetleaf; [15]) was 0 and the “Velvetleaf plant response rating” value (velvetleaf; [16]) was 6. The “Velvetleaf plant response rating (0 to 10 scale)” value (velvetleaf; Preemergence, Rate 125 g/ha, 0 is no effect, 10 is complete control) was 6, the “Plant response rating, Velvetleaf” value (velvetleaf; [4]) was 7 and the “Velvetleaf plant response rating” value (velvetleaf; [18]) was 8. The “Plant response rating, Velvetleaf” value (velvetleaf; [19]) was 3, the “Plant response rating, Wheat (winter)” value (winter wheat [1]; [20]) was 0 and the “Plant response rating, Wheat (winter)” value (winter wheat [1]; Rate 62 g/ha, 0 to 100 scale) was 10. The “Plant response rating, Blackgrass” value (blackgrass; [20]) was 20, the “Plant response rating, Blackgrass” value (blackgrass; [21]) was 60 and the “Plant response rating, Green foxtail” value (green foxtail; [20]) was 60. For the same compound, the “Plant response rating, Green foxtail” value (green foxtail; [21]) was 80, the “Plant response rating, I. Ryegrass” value (Italian ryegrass; [20]) was 40 and the “Plant response rating, I. Ryegrass” value (Italian ryegrass; [21]) was 40. The “Plant response rating, Wheat (winter)” value (winter wheat [2]; [20]) was 10, the “Plant response rating, Wheat (winter)” value (winter wheat [2]; [21]) was 40 and the “Plant response rating, Wild oat” value (wild oat; [20]) was 40. For the same compound, the “Plant response rating, Wild oat” value (wild oat; [21]) was 60, the “Plant response rating, Barley (winter)” value (winter barley; [20]) was 20 and the “Plant response rating, Barley (winter)” value (winter barley; [21]) was 40.
